Results published in US9274101B2 (BIOLOG, Inc., priority 2001, dated 2016).

Tests used:
HepG2 cells = HepG2 cells cultured on CYTODEX 3 microcarriers, energy sources; assay type: cell-based, human; settings: for activity at 30 µM / activity at 100 µM / activity at 330 µM / activity at 1000 µM / activity at 3300 µM / activity at 10000 µM / activity at 15000 µM / activity at 20000 µM: Homo sapiens, HepG2, 68 h, read-out: Responses of HepG2 Cells Cultured on Microcarriers After 68 hours in Culture and a 4 hour Color Development Period
Procedure, shortened: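 HepG2 cells on CYTODEX 3 microcarriers, held in methylcellulose-containing DME with 10% HI FBS lacking glucose, glutamine and pyruvate, exposed to test energy sources at 0.033–20 mM final. After 68 h at 37 °C, MTS/PMS read at 490 nm (ref 650 nm) after 4–8 h; cell-free background subtracted, normalized to % no-energy-source control.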

E. coli MG1655 = assay type: cell-based, Escherichia coli
HL-60 cells = HL-60 cells in PM1 and PM2 plates, MTS/MPMS color, % negative control; assay type: cell-based, human; settings: L-glutamine 13.7 mM (well E1); citric acid 10.4 mM (well F2)
[1] = system: Salmonella typhimurium auxotrophs hisF645 and pyrCΔ73; assay type: cell-based

Row | SMILES | suitability as nitrogen source (growth, purple color) (E. coli MG1655) | activity at 30 µM (HepG2 cells; Conc. 0.03 mM) | activity at 100 µM (HepG2 cells; Conc. 0.10 mM) | activity at 330 µM (HepG2 cells; Conc. 0.33 mM) | activity at 1000 µM (HepG2 cells; Conc. 1.00 mM) | activity at 3300 µM (HepG2 cells; Conc. 3.3 mM) | activity at 10000 µM (HepG2 cells; Conc. 10 mM) | activity at 15000 µM (HepG2 cells; Conc. 15 mM) | activity at 20000 µM (HepG2 cells; Conc. 20 mM) | also measured
1 | O=C1O[C@@H]([C@H](O)CO)[C@H](O)[C@H]1O [D-gal acid g-lactone] | – | – | – | – | – | – | – | – | – | Responses of HepG2 Cells Cultured on Microcarriers After 68 hours in Culture and a 4 hour Color Development Period (HepG2 cells; Conc. 0.03 mM): 99.4 % of negative control; Responses of HepG2 Cells Cultured on Microcarriers After 68 hours in Culture and a 4 hour Color Development Period (HepG2 cells; Conc. 0.10 mM): 100.2 % of negative control; Responses of HepG2 Cells Cultured on Microcarriers After 68 hours in Culture and a 4 hour Color Development Period (HepG2 cells; Conc. 0.33 mM): 89.0 % of negative control; Responses of HepG2 Cells Cultured on Microcarriers After 68 hours in Culture and a 4 hour Color Development Period (HepG2 cells; Conc. 1.00 mM): 89.4 % of negative control; Responses of HepG2 Cells Cultured on Microcarriers After 68 hours in Culture and a 4 hour Color Development Period (HepG2 cells; Conc. 3.3 mM): 101.7 % of negative control; Responses of HepG2 Cells Cultured on Microcarriers After 68 hours in Culture and a 4 hour Color Development Period (HepG2 cells; Conc. 10 mM): 95.2 % of negative control; Responses of HepG2 Cells Cultured on Microcarriers After 68 hours in Culture and a 4 hour Color Development Period (HepG2 cells; Conc. 15 mM): 98.6 % of negative control; Responses of HepG2 Cells Cultured on Microcarriers After 68 hours in Culture and a 4 hour Color Development Period (HepG2 cells; Conc. 20 mM): 74.1 % of negative control
2 | NC(=O)C[C@H](N)C(=O)O [L-asparagine] | positive | – | – | – | – | – | – | – | – | –
3 | NC(=O)CC[C@H](N)C(=O)O [L-glutamine] | positive | 110% | 151% | 195% | 211% | 212% | 183% | 150% | 101% | response in words (HepG2 cells; 68 hours culture, responses greater than 140% of the negative control scored positive): narrow range of responsiveness; response in words (HL-60 cells): strong positive response
4 | N[C@@H](Cc1c[nH]cn1)C(=O)O [L-histidine] | not suitable | – | – | – | – | – | – | – | – | growth stimulation (well color) [1]: turned purple
5 | CC(C)[C@H](N)C(=O)O [L-valine] | not suitable | – | – | – | – | – | – | – | – | –
6 | Cc1cn([C@H]2C[C@H](O)[C@@H](CO)O2)c(=O)[nH]c1=O [Thymidine] | not suitable | 87.9% | 101% | 97.9% | 99.4% | 89% | 71.4% | 65.2% | 34.5% | –
